The values below come from PubChem BioAssay AID1259411 (Chemical Carcinogenesis Research Information System (CCRIS), 2018).

This data set deals with rodent carcinogenicity bioassays, tumor incidence. Put plainly: CCRIS carcinogenicity studies. The essentials: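 NCI-built, expert-reviewed records of carcinogenicity and related test outcomes (mutagenicity, tumor promotion/inhibition) compiled from published and report sources, historical span 1985-2011, not updated.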

Active and inactive are the calls of the source. The rule behind the calls is not given here.

Turning to `OC[C@H]1O[C@H](O[C@]2(CCl)O[C@H](CCl)[C@@H](O)[C@@H]2O)[C@H](O)[C@@H](O)[C@H]1Cl`, the carcinogen call is “inactive; negative” (Species: MOUSE, Strain/Sex: CD-1/FEMALE, Route: ORAL, Dose: 0, 3000, 10,000, 30,000 PPM IN DIET FOR 104 WK (STUDY DURATION: 104 WK), Dose: 0, 3000, 10,000, 30,000 PPM IN DIET FOR 104 WK (STUDY DURATION: 104 WK)); “inactive; negative” (Species: MOUSE, Strain/Sex: CD-1/MALE, Route: ORAL, Dose: 0, 3000, 10,000, 30,000 PPM IN DIET FOR 104 WK (STUDY DURATION: 104 WK), Dose: 0, 3000, 10,000, 30,000 PPM IN DIET FOR 104 WK (STUDY DURATION: 104 WK)); “inactive; negative” (Species: RAT, Strain/Sex: SPRAGUE-DAWLEY/FEMALE, Route: ORAL, Dose: 0, 0.3, 1.0, 3.0% IN DIET FOR 104 WK (STUDY DURATION: 104 WK), Dose: 0, 0.3, 1.0, 3.0% IN DIET FOR 104 WK (STUDY DURATION: 104 WK)); “inactive; negative” (Species: RAT, Strain/Sex: SPRAGUE-DAWLEY/MALE, Route: ORAL, Dose: 0, 0.3, 1.0, 3.0% IN DIET FOR 104 WK (STUDY DURATION: 104 WK), Dose: 0, 0.3, 1.0, 3.0% IN DIET FOR 104 WK (STUDY DURATION: 104 WK)).
As to `COC(C)(C)C`, the carcinogen call is “active; positive” (Species: MOUSE, Strain/Sex: CD-1/FEMALE, Route: INHALATION, Dose: 0, 400, 3000, 8000 PPM IN AIR 6 HR/D 5 D/WK FOR 18 MO (STUDY DURATION: 18 MO), Dose: 0, 400, 3000, 8000 PPM IN AIR 6 HR/D 5 D/WK FOR 18 MO (STUDY DURATION: 18 MO), Tumor Site: Type of Lesion: LIVER: ADENOMA); “inactive; negative” (Species: MOUSE, Strain/Sex: CD-1/MALE, Route: INHALATION, Dose: 0, 400, 3000, 8000 PPM IN AIR 6 HR/D 5 D/WK FOR 18 MO (STUDY DURATION: 18 MO), Dose: 0, 400, 3000, 8000 PPM IN AIR 6 HR/D 5 D/WK FOR 18 MO (STUDY DURATION: 18 MO)); “inactive; negative” (Species: RAT, Strain/Sex: F344/FEMALE, Route: INHALATION, Dose: 0, 400, 3000, 8000 PPM IN AIR 6 HR/D 5 D/WK FOR 24 MO (STUDY DURATION: 24 MO), Dose: 0, 400, 3000, 8000 PPM IN AIR 6 HR/D 5 D/WK FOR 24 MO (STUDY DURATION: 24 MO)); “active; positive” (Species: RAT, Strain/Sex: F344/MALE, Route: INHALATION, Dose: 0, 400, 3000, 8000 PPM IN AIR 6 HR/D 5 D/WK FOR 24 MO (STUDY DURATION: 24 MO), Dose: 0, 400, 3000, 8000 PPM IN AIR 6 HR/D 5 D/WK FOR 24 MO (STUDY DURATION: 24 MO), Tumor Site: Type of Lesion: KIDNEY(RENAL TUBULE): ADENOMA OR CARCINOMA); “active; positive” (Species: RAT, Strain/Sex: SPRAGUE-DAWLEY/FEMALE, Route: GAVAGE, Dose: 0, 250, 1000 MG/KG BW IN 1 ML OLIVE OIL 1/D 4 D/WK FOR 104 WK (STUDY DURATION: 166 WK), Dose: 0, 250, 1000 MG/KG BW IN 1 ML OLIVE OIL 1/D 4 D/WK FOR 104 WK (STUDY DURATION: 166 WK), Tumor Site: Type of Lesion: HEMOLYMPHORETICULAR SYSTEM: LYMPHOMA OR LEUKEMIA); “active; positive” (Species: RAT, Strain/Sex: SPRAGUE-DAWLEY/FEMALE, Route: GAVAGE, Dose: 0, 250, 1000 MG/KG BW IN OLIVE OIL 1/D 4D/WK FOR 104 WK (STUDY DURATION: LIFE SPAN), Dose: 0, 250, 1000 MG/KG BW IN OLIVE OIL 1/D 4D/WK FOR 104 WK (STUDY DURATION: LIFE SPAN), Tumor Site: Type of Lesion: MULTIPLE SITES: LYMPHOMA OR LEUKEMIA). Moreover, the carcinogen call is “active; positive” (Species: RAT, Strain/Sex: SPRAGUE-DAWLEY/MALE, Route: GAVAGE, Dose: 0, 250, 1000 MG/KG BW IN 1 ML OLIVE OIL 1/D 4 D/WK FOR 104 WK (STUDY DURATION: 166 WK), Dose: 0, 250, 1000 MG/KG BW IN 1 ML OLIVE OIL 1/D 4 D/WK FOR 104 WK (STUDY DURATION: 166 WK), Tumor Site: Type of Lesion: TESTES: LEYDIG CELL TUMOR) and “active; positive” (Species: RAT, Strain/Sex: SPRAGUE-DAWLEY/MALE, Route: GAVAGE, Dose: 0, 250, 1000 MG/KG BW IN OLIVE OIL 1/D 4D/WK FOR 104 WK (STUDY DURATION: LIFE SPAN), Dose: 0, 250, 1000 MG/KG BW IN OLIVE OIL 1/D 4D/WK FOR 104 WK (STUDY DURATION: LIFE SPAN), Tumor Site: Type of Lesion: TESTES: LEYDIG CELL TUMOR).
In the case of `O=C1Nc2ccc(Cl)cc2C(c2ccccc2)=NC1O` (centres undefined), the carcinogen call (Species: MOUSE, Strain/Sex: B6C3F1/FEMALE, Route: ORAL, Dose: 0, 125, 2500, 5000 PPM IN FEED FOR 104-105 WK (STUDY DURATION: 105 WK), Dose: 0, 125, 2500, 5000 PPM IN FEED FOR 104-105 WK (STUDY DURATION: 105 WK), Tumor Site: Type of Lesion: LIVER: HEPATOBLASTOMA, HEPATOCELLULAR ADENOMA, HEPATOCELLULAR CARCINOMA, THYROID: FOLLICULAR CELL ADENOMA) is “active; positive”; the carcinogen call (Species: MOUSE, Strain/Sex: B6C3F1/MALE, Route: ORAL, Dose: 0, 125, 2500, 5000 PPM IN FEED FOR 104-105 WK (STUDY DURATION: 105 WK), Dose: 0, 125, 2500, 5000 PPM IN FEED FOR 104-105 WK (STUDY DURATION: 105 WK), Tumor Site: Type of Lesion: LIVER: HEPATOBLASTOMA, HEPATOCELLULAR ADENOMA, HEPATOCELLULAR CARCINOMA) was “active; positive”; the carcinogen call (Species: MOUSE, Strain/Sex: SWISS-WEBSTER/FEMALE, Route: ORAL, Dose: 0, 2500, 5000 PPM IN FEED FOR 57 WK (STUDY DURATION: 57 WK), Dose: 0, 2500, 5000 PPM IN FEED FOR 57 WK (STUDY DURATION: 57 WK), Tumor Site: Type of Lesion: LIVER: HEPATOCELLULAR ADENOMA, HEPATOCELLULAR CARCINOMA) is “active; positive”; the carcinogen call (Species: MOUSE, Strain/Sex: SWISS-WEBSTER/MALE, Route: ORAL, Dose: 0, 2500, 5000 PPM IN FEED FOR 57 WK (STUDY DURATION: 57 WK), Dose: 0, 2500, 5000 PPM IN FEED FOR 57 WK (STUDY DURATION: 57 WK), Tumor Site: Type of Lesion: LIVER: HEPATOCELLULAR ADENOMA, HEPATOCELLULAR CARCINOMA) is “active; positive”; the carcinogen call (Species: MOUSE, Strain/Sex: SWISS/MALE,FEMALE, Route: ORAL, Dose: 0.05, 0.15% IN DIET FOR 9 MO, Tumor Site: Type of Lesion: LIVER: HEPATOCELLULAR ADENOMA) was “active; positive”; the carcinogen call (Species: RAT, Strain/Sex: F344/FEMALE, Route: ORAL, Dose: 0, 625, 2500, 5000 PPM FOR 105 WK (STUDY DURATION: 105 WK), Dose: 0, 625, 2500, 5000 PPM FOR 105 WK (STUDY DURATION: 105 WK)) was “inactive; negative”. The carcinogen call is “inactive; negative” (Species: RAT, Strain/Sex: F344/FEMALE, Route: ORAL, Dose: 0, 625, 2500, 5000 PPM IN DIET FOR 105 WK (STUDY DURATION: 105 WK), Dose: 0, 625, 2500, 5000 PPM IN DIET FOR 105 WK (STUDY DURATION: 105 WK)); “inactive; negative” (Species: RAT, Strain/Sex: F344/FEMALE, Route: ORAL, Dose: 0, 10,000 PPM FOR 26 WK (STUDY DURATION: 105 WK)); “inactive; negative” (Species: RAT, Strain/Sex: F344/FEMALE, Route: ORAL, Dose: 0, 10000 PPM IN DIET FOR 26 WK (STUDY DURATION: 105 WK)); “equivocal” (Species: RAT, Strain/Sex: F344/MALE, Route: ORAL, Dose: 0, 625, 2500, 5000 PPM IN DIET FOR 105 WK (STUDY DURATION: 105 WK), Dose: 0, 625, 2500, 5000 PPM IN DIET FOR 105 WK (STUDY DURATION: 105 WK), Tumor Site: Type of Lesion: KIDNEY: RENAL TUBULE ADENOMA); “equivocal” (Species: RAT, Strain/Sex: F344/MALE, Route: ORAL, Dose: 0, 10000, PPM IN DIET FOR 26 WK (STUDY DURATION: 105 WK), Dose: 0, 10000, PPM IN DIET FOR 26 WK (STUDY DURATION: 105 WK), Tumor Site: Type of Lesion: KIDNEY: RENAL TUBULE ADENOMA); “active; positive” (Species: RAT, Strain/Sex: F344/MALE, Route: ORAL, Dose: 0, 10,000 PPM FOR 26 WK (STUDY DURATION: 105 WK), Tumor Site: Type of Lesion: KIDNEY: RENAL TUBULE ADENOMA).
